Source: US9326539B2, “Compositions comprising dietary fat complexers and methods for their use” (Soho Flordis International Pty. Ltd., priority 2002, dated 2016)

Legend:
[1] = Wistar rat low fat/high fat diet feeding study: food and energy intake, body weight, body composition; assay type: in vivo, Wistar rats; settings: 6 week study, α-cyclodextrin:fat 1:10 w/w in diet
Excerpt: To examine the effect of α-cyclodextrin on body weight gain and plasma lipid levels in animals fed high fat and low fat diets, we conducted a short-term feeding study using Wistar rats. Forty-two male Wistar rats, 10 weeks old, were obtained from Harlan-Sprague Dawley. Following a one-week adaptation while being fed the control low fat diet (LF), they were divided equally into two groups, one low-fat (LF) diet and the other high-fat (HF) diet. These two groups were further divided into two subgroups. Two groups were fed the LF or HF diet and served as controls for the other two test groups which were fed the LF or HF diet containing α-cyclodextrin, wherein the amount of α-cyclodextrin was such that the ratio of α-cyclodextrin to fat in the food was 1:10 w/w. […]
If this were the case it would be difficult to imagine being able to feed enough of the α-cyclodextrin to an animal in order to complex sufficient triglycerides to make a significant difference in body weight as triglycerides and α-cyclodextrin have similar molecular weights. However, from the data disclosed herein wherein e.g., a diet comprising 4% α-cyclodextrin and 40% fat inhibits weight gain and reduces body fat mass, as the molecular weights are very similar, we have calculated that one α-cyclodextrin molecule can complex approximately nine molecules of triglyceride, the equivalent of 27 free fatty acids. […]

[2] = dog with chronic diarrhea fed α-cyclodextrin with dry food; assay type: in vivo; settings: 2.5 g α-cyclodextrin with two cups dry food twice a day for two and one-half weeks, α-cyclodextrin:fat about 1:9
Method: An eighteen month old, neutered male dog of unknown parentage having chronic diarrhea was de-wormed twice and placed on hypoallergenic food in an effort to control the diarrhea. However, the chronic diarrhea was not alleviated and the dog stopped eating for a day or two on two or three separate occasions.
The dog was then treated with α-cyclodextrin as follows: The dog was placed on a diet comprising a teaspoon (2.5 g) of α-cyclodextrin mixed with two cups dry food twice a day for two and one-half weeks. Based on the fat content in the food, the ratio of α-cyclodextrin to fat was about 1:9. The dog's chronic diarrhea was eliminated during this period except for an acute episode of loose stools after a day of swimming in a river but the stool has been formed ever since.
The dog very quickly lost his appetite, self restricted his food intake by about one-half and began eating grass, grass helps to bind his stool. The diarrhea returned.

[3] = cited from earlier work
[4] = Wistar rat feeding study: plasma glucose, cholesterol, triglyceride, insulin resistance; assay type: in vivo, Wistar rats
Excerpt: The rats were housed as pairs for five weeks prior to being placed in individual metabolic cages for the sixth week of the study. All of the rats' feces were collected during the final three days of the study. At the end of the sixth week of the study period the rats were sacrificed by decapitation after a brief exposure to carbon dioxide gas. Trunk blood and the livers were collected from each animal. The rest of the body was eviscerated and all visible fat from the internal cavity was collected and weighed. The carcass was frozen for body composition analysis at a later date.
The plasma glucose, cholesterol and triglyceride concentrations were measured on all of the sacrificed animals using standard clinical laboratory techniques as may be found in Tietz Textbook of Clinical Chemistry, second edition. Burtis C A and Ashwood E R eds., W.B. Saunders Company A Division of Harcourt Brace & Company, 1994, Philadelphia incorporated herein by reference. (FIG. 5). On average the α-cyclodextrin appeared to have decreased the plasma total cholesterol levels by about 10%. This decrease was not statistically significant over this short study period; we expect that with longer feeding period, cholesterol levels will continue to decline. […] LDL cholesterol levels on all of the animals were too low to measure reliably since in rats the majority of the cholesterol is carried in the HDL-cholesterol fraction, and very little is carried in the LDL-cholesterol fraction.
Increased insulin resistance, elevated blood triglycerides and reduced HDL cholesterol levels are all the risk factors of Syndrome X. Insulin/glucose ratios as well as triglyceride/HDL ratios were calculated to provide indications about insulin resistance and risk of Syndrome X. (Szejtli J. Mater. Chem. 1997; 7:575-587 incorporated herein by reference). […] The reduction in triglyceride/HDL cholesterol ratios by α-cyclodextrin indicated a significant decrease in the risk for Syndrome X.

[5] = target: T1, porcine pancreatic lipase (Sus scrofa, UniProt P00591); test: lipolytic activity of porcine pancreatic lipase on purified olive oil premixed with α-cyclodextrin; assay type: biochemical
T1 sequence (P00591 1-450): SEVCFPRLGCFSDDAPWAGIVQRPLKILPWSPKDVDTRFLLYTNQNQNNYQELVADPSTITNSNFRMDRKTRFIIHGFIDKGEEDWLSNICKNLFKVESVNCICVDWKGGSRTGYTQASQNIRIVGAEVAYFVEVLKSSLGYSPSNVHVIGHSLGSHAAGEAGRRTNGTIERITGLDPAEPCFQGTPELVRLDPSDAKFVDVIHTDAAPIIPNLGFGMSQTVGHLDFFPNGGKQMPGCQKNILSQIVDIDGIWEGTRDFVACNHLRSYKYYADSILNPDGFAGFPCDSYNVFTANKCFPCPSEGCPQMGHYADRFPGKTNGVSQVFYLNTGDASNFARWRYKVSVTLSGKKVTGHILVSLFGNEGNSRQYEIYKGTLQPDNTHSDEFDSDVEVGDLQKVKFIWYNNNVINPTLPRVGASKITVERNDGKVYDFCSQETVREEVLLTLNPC
Excerpt: If this were the case it would be difficult to imagine being able to feed enough of the α-cyclodextrin to an animal in order to complex sufficient triglycerides to make a significant difference in body weight as triglycerides and α-cyclodextrin have similar molecular weights. However, from the data disclosed herein wherein e.g., a diet comprising 4% α-cyclodextrin and 40% fat inhibits weight gain and reduces body fat mass, as the molecular weights are very similar, we have calculated that one α-cyclodextrin molecule can complex approximately nine molecules of triglyceride, the equivalent of 27 free fatty acids. Thus we can convert this directly to I gram of α-cyclodextrin complexes approximately 9 grams of triglyceride. […] As these particles are formed in the midst of chyme, a very complex “soup”, the particles may be analogous to lipoprotein particles of the blood stream.

## OC[C@H]1O[C@@H]2O[C@H]3[C@H](O)[C@@H](O)[C@@H](O[C@H]4[C@H](O)[C@@H](O)[C@@H](O[C@H]5[C@H](O)[C@@H](O)[C@@H](O[C@H]6[C@H](O)[C@@H](O)[C@@H](O[C@H]7[C@H](O)[C@@H](O)[C@@H](O[C@H]1[C@H](O)[C@H]2O)O[C@@H]7CO)O[C@@H]6CO)O[C@@H]5CO)O[C@@H]4CO)O[C@@H]3CO [α-cyclodextrin]
[1]
  rate of body weight gain: gained weight at a slower rate relative to their respective control groups
[2]
  chronic diarrhea: eliminated
[3]; JP 05-298849, diet with 16% a-cyclodextrin, or 1% linolenic acid, or 14% α-cyclodextrin and 2% linolenic acid
  weight gain of rats versus control diet: gain weight approximately the same as rats fed a control diet
[3]; Kaewprasert et al. 2001, 5% α-cyclodextrin diet, cyclodextrin:fat about 1:1.4
  body weight gain of rats versus control diets: not significantly different
[3]; S60-149752, diet with 14% w/w α-cyclodextrin, or 14% w/w α-cyclodextrin and 0.5% w/w linolenic acid
  weight gain of rats: little effect on weight gain
[4]; 6 week study
  triglyceride/HDL cholesterol ratios: reduction
[4]; at sacrifice
  decrease of HDL cholesterol: 6-8%
  plasma glucose levels: not affected significantly
[4]; at sacrifice, p<0.05
  reduction of plasma triglyceride levels: about 30%
[4]; on average, at sacrifice, not statistically significant
  decrease of plasma total cholesterol: about 10%
[5]
  lipolytic activity of porcine pancreatic lipase: significantly reduced
